ED50 data for twelve compounds are collected here from patent publication US4032529A, “Aminomethanobenzazocine intermediates” (Sterling Drug Inc., priority 1975, dated 1977).

Structures can show the parent of a compound that is named as a salt.

The subject of the assay is acetylcholine-induced writhing in mice. The experiment in a line: acetylcholine writhing test, a primary screening test for analgesia. The class given is in vivo. To be noted: Mus musculus, sc, 20 min; subcutaneous; mice dosed 20 minutes prior to acetylcholine 3.2 mg./kg. intraperitoneal; 2-minute observation; probit analysis. Here is the method:
All of the compounds of Formula I of the examples were tested and determined to be active in the acetylcholine writhing test, a primary screening test for analgesia. In this test the ability of test compounds to prevent acetylcholine-induced writhing in mice is determined. The following is an adaptation of the method of Collier and co-workers (Brit. J. Pharmacol. Chemother., 32, 295(1968)) by Anne K. Pierson. […] The mice are dosed with the test compound plus vehicle or vehicle alone (controls) 20 minutes prior to, and are observed for 2 minutes after, the acetylchloine injection. During the 2-minute observation period mice not responding by writhing are scored protected and mice responding by writhing one or more times are scored not protected. The mice are dosed orally (usually at 150-200 mg./kg.) or subcutaneously (usually at 75-100 mg./kg.). Fifteen mice per does level are used. ED50 values for active compounds are calculated by probit analysis (C. I. Bliss, The Statistics of Bioassay, Academic Press, New York, 1952) of quantal scores of tests at four or more appropriate dose levels. The following subcutaneous ED50 values for the compounds of Formula I of the examples were determined.
`C[C@@H]1[C@@H]2Cc3ccc(NCc4ccccc4)cc3[C@@]1(C)CCN2CC1CC1` (relative stereo) [Example 7, 3-(cyclopropylmethyl)-1,2,3,4,5,6-hexahydro-cis-6,11-dimethyl-8-benzylamino-2,6-methano-3-benzazocine dihydrochloride] gave a 50% effective dose (ED50) of 1.6 mg/kg.

`C=CCN1CC[C@]2(C)c3cc(N)ccc3C[C@H]1[C@H]2C` (relative stereo) [Example 8C, 8-amino-1,2,3,4,5,6-hexahydro-cis-6,11-dimethyl-3-(2-propenyl)-2,6-methano-3-benzazocine dihydrochloride]: the ED50 turned out to be 2.5 mg/kg. Against the preceding compound, the ED50 is about 1.6-fold higher.

Turning to `C[C@@H]1[C@@H]2Cc3ccc(N(C)C)cc3[C@@]1(C)CCN2CC1CC1` (relative stereo) [Example 4F, 3-cyclopropylmethyl-8-dimethylamino-cis-6,11-dimethyl-1,2,3,4,5,6-hexahydro-2,6-methano-3-benzazocine dihydrochloride], the median effective dose (ED50) stood at 0.79 mg/kg.

Compound `CCNc1ccc2c(c1)[C@@]1(C)CCN(CC3CC3)[C@@H](C2)[C@H]1C` (relative stereo) [Example 9B, 3-(cyclopropylmethyl)-8-(ethylamino)-1,2,3,4,5,6-hexahydro-cis-6,11-dimethyl-2,6-methano-3-benzazocine] yielded an ED50 of 1.3 mg/kg.

In turn, `C[C@@H]1[C@@H]2Cc3ccc(NCC4CC4)cc3[C@@]1(C)CCN2CC1CC1` (relative stereo) [Example 2E, 3-(cyclopropylmethyl)-8-(cyclopropylmethylamino)-1,2,3,4,5,6-hexahydro-cis-6,11-dimethyl-2,6-methano-3-benzazocine hydrochloride] yielded an ED50 of 0.7 mg/kg. This ED50 lies about 1.9-fold lower than the previous one.

Compound `CNc1ccc2c(c1)[C@@]1(C)CCN(CC3CC3)[C@@H](C2)[C@H]1C` (relative stereo) [Example 3B, 3-(cyclopropylmethyl)-1,2,3,4,5,6-hexahydro-cis-6,11-dimethyl-8-(methylamino)-2,6-methano-3-benzazocine dihydrochloride ethanolate hydrate] returned an ED50 of 0.44 mg/kg.

`C[C@@H]1[C@@H]2Cc3ccc(N)cc3[C@@]1(C)CCN2CC1CC1` (relative stereo) [Example 1B, 8-amino-3-(cyclopropylmethyl)-1,2,3,4,5,6-hexahydro-cis-6,11-dimethyl-2,6-methano-3-benzazocine dihydrochloride]: the ED50 was determined as 0.8 mg/kg.

In turn, `CCCN1CC[C@]2(C)c3cc(N)ccc3C[C@H]1[C@H]2C` (relative stereo) [Example 6C, 8-amino-cis-6,11-dimethyl-1,2,3,4,5,6-hexahydro-3-propyl-2,6-methano-3-benzazocine dihydrochloride sesquihydrate] yielded an ED50 of 5.6 mg/kg.

Regarding `CC(C)CN1CC[C@]2(C)c3cc(N)ccc3C[C@H]1[C@H]2C` (relative stereo) [Example 5C, 8-amino-1,2,3,4,5,6-hexahydro-3-isobutyl-cis-6,11-dimethyl-2,6-methano-3-benzazocine dihydrochloride], the ED50 was determined as 1.5 mg/kg.

Take `CC[C@@H]1[C@@H]2Cc3ccc(N)cc3[C@@]1(CC)CCN2CC1CC1` (relative stereo) [Example 12H, 8-amino-3-(cyclopropylmethyl)-cis-6,11-diethyl-1,2,3,4,5,6-hexahydro-2,6-methano-3-benzazocine dihydrochloride]: the median effective dose (ED50) worked out at 1.3 mg/kg. The ED50 values of the last two compounds are within 1.5-fold of each other.

Regarding `CCCCNc1ccc2c(c1)[C@@]1(C)CCN(CC3CC3)[C@@H](C2)[C@H]1C` (relative stereo) [Example 11B, 8-(butylamino)-3-(cyclopropylmethyl)-1,2,3,4,5,6-hexahydro-cis-6,11-dimethyl-2,6-methano-3-benzazocine], the ED50 was 1 mg/kg.

`CCCNc1ccc2c(c1)[C@@]1(C)CCN(CC3CC3)[C@@H](C2)[C@H]1C` (relative stereo) [Example 10B, 3-(cyclopropylmethyl)-1,2,3,4,5,6-hexahydro-cis-6,11-dimethyl-8-(propylamino)-2,6-methano-3-benzazocine] had a median effective dose (ED50) of 1.2 mg/kg.

Broadly, the ED50 is the midpoint of the dose-response relation. A low value points to greater potency.
